Our source for the EC50, IC50 and outcome values is PubChem BioAssay AID179 (DTP/NCI, 2004).

The test system of this test is CEM cells HIV-1 protection, formazan growth assay. Briefly: NCI AIDS Antiviral Assay. To be noted: for IC50: measured here: growth of uninfected CEM cells. Summed up: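 Human CEM cells, uninfected and HIV-1-infected, exposed to five drug concentrations; growth measured by soluble formazan assay and scored as percent protection from infection, with protecting compounds retested.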

Each structure is given as a SMILES string. Active and inactive are the calls of the source.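 The calls were made as follows: active = compounds giving half or more protection of infected cells from virus-caused growth loss, again on retest; inactive = the rest.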 Bounds are passed on as bounds.

As to `COc1cc(C(CC(C)=O)c2cc3c(cc2OC(C)=O)OCO3)cc(OC)c1OC` (configuration not stated) (tested in a mixture with another compound), the EC50 was above 105 µM and the IC50 is 0.135 µM.

As for `BrC12c3ccccc3Sc3ccccc3C1(Br)c1ccccc12` (configuration not stated), the outcome was inactive.

With `OC(c1ccc(F)cc1)C(F)(F)c1nc2ccccc2o1` (configuration not stated), the EC50 is above 200 µM and the IC50 was above 200 µM.

`CCOC(=O)[C@@H]1ON2O[C@@H](OC3CCCCC3c3ccccc3)C[C@H]3OC(=O)[C@@H]1C32` (some centres not stated): the EC50 was above 200 µM and the IC50 was above 200 µM.

With `COC(=O)c1nn(C(=N)c2ccc(Cl)cc2)c2c1CCC2`, the EC50 is above 813 µM and the IC50 was above 813 µM.

Take `COC1=C2C=[N+](C)C3C(=C2C=CC1OC)Cc1cc2c(cc13)OCO2` (configuration not stated): the EC50 was above 631 µM and the IC50 worked out at 3.63 µM.

Turning to `O=C1CSC2=NCC3(NN12)c1ccccc1-c1ccccc13`, the EC50 was above 200 µM and the IC50 was above 100 µM.

With `Cc1cc2c(c(C(=O)O)c1C)-c1cccc(Cl)c1C2=O`, the outcome was inactive.

In the case of `c1ccc(-c2nc3sc(-c4ccccc4)nc3s2)cc1`, the EC50 was above 200 µM and the IC50 was above 200 µM.

Consider `CCOC(=O)C(=O)/C(=C/n1c(=S)[nH]c2cc(C)ccc21)C(=O)OCC`, for which the EC50 is above 200 µM and the IC50 is above 200 µM.

Regarding `N#Cc1ccc(-c2nc3c(N)ncnc3o2)cc1`, the EC50 was above 200 µM and the half-inhibitory concentration (IC50) was above 200 µM.

For `CC(C)NCCCC(C)Nc1ccnc2ccc3nn(C)nc3c12` (configuration not stated), the EC50 was above 240 µM and the IC50 amounted to 53.7 µM.

For `O=C1N=NC2=C1c1c3ccccc3c(O)n1CC2`, the EC50 is above 200 µM and the IC50 is 166 µM.

Consider `CCOP(=O)(OCC)Oc1ccc(Sc2ccc(OP(=O)(OCC)OCC)cc2)cc1`, for which the EC50 was above 200 µM and the IC50 turned out to be 85.1 µM.

Take `O=[N+]([O-])CC(SCc1ccccc1)c1ccc2c(c1)OCO2` (configuration not stated): the outcome was inactive.

As to `COc1ccc2cc(C(C)C(O)c3cc(F)c(F)c(F)c3F)ccc2c1` (configuration not stated), the EC50 is 126 µM and the IC50 was above 200 µM.

Regarding `CCOc1ccc(C(=O)Nc2ccc(C3=NCCN3)cc2)cc1C(=O)Nc1ccc(C2=NCCN2)cc1`, the EC50 was 2.95 µM and the IC50 came to 117 µM.

`OCCC[N+]12CCCN1CCC2`: the EC50 is above 200 µM and the IC50 is above 200 µM.

As to `Clc1ccc(CCn2cncn2)cc1`, the EC50 was above 537 µM and the IC50 was determined as 525 µM.

For the compound `CCc1cccc(C)c1NC(=O)C(=O)Cc1nc2ccccc2s1`, the result was inactive.

Turning to `COC(=O)C1=CC2CC1C(S(=O)(=O)c1ccccc1)C2S(=O)(=O)c1ccccc1` (configuration not stated), the EC50 is above 100 µM and the IC50 was 4.57 µM.

`COc1ccc2nc3ccc(OC)cc3c(SCc3ccc([N+](=O)[O-])cc3)c2c1`: the EC50 was above 200 µM and the IC50 is above 200 µM.

`CCOC(=O)C1=C(O)CSC1=Nc1ccccc1`: the outcome was inactive.

As to `O=S(Nc1ccccc1)c1cccc(Cl)c1` (configuration not stated), the outcome was inactive.

Consider `CC1=NC(C)=C(/C(C)=N/NC(=O)c2ccccc2O)C(C)/C1=C(/C)NNC(=O)c1ccccc1O` (configuration not stated), for which the EC50 was above 186 µM and the IC50 came out at 8.71 µM.

Take `CN(C)Cc1cc(CN(C)C)cc(CN(C)C)c1`: the EC50 is above 200 µM and the IC50 was above 200 µM.

Take `CN(C)CCSC1=Nc2ccc(Cl)cc2C(c2ccccc2Cl)N(C)C1` (configuration not stated): the EC50 is above 200 µM and the IC50 was 20 µM.

Consider `CN(C)P(=O)(c1ccccc1)c1ccccc1`, for which the EC50 was above 200 µM and the IC50 is above 200 µM.

In the case of `CCCC/C(=N\OC(=O)N(C)C)c1ccccc1`, the EC50 was above 200 µM and the IC50 is above 100 µM.

For `COc1ccc2c(c1)C(=O)C1CCC(=O)N1C2c1ccc2c(c1)OCO2` (configuration not stated), the EC50 was above 200 µM and the IC50 was found to be 3.72 µM.

In the case of `CN(C)CCNc1ccc2ncnc3c2c1C(=O)c1ccccc1-3`, the EC50 was above 1 µM and the IC50 amounted to 0.219 µM.

For `COc1ccc(C2NC(=S)N3C(c4ccc(OC)c(OC)c4)NC(=S)N23)cc1OC` (configuration not stated), the EC50 is above 200 µM and the IC50 is above 200 µM.

In the case of `C1=Cc2ccccc2/C1=C/c1ccc2c(c1)OCO2`, the EC50 is above 20.9 µM and the IC50 was 12.3 µM.

Consider `CN(C)c1ccc(/C=C2\CCCCCC2=O)cc1`, for which the EC50 is above 200 µM and the IC50 was 26.9 µM.

As for `c1ccc(C2=NOC3(c4ccccc4)CC(c4cccs4)Sc4ccccc4N23)cc1` (configuration not stated), the EC50 was above 200 µM and the IC50 came to 70.8 µM.

As for `COC(=O)C(C)(NC(=O)C(CC(=O)OC(C)(C)C)NC(=O)OC(C)(C)C)c1ccccc1` (configuration not stated), the EC50 is above 200 µM and the IC50 was above 100 µM.

Regarding `O=C(O)CCC(=O)Nc1ccc2c(c1)S(=O)(=O)N(CC(=O)O)C2=O`, the EC50 is above 200 µM and the IC50 was above 200 µM.

`O=C(Nc1ccccc1)c1nn(-c2cc(S(=O)(=O)O)c([N+](=O)[O-])cc2Cl)[n+](-c2cc(S(=O)(=O)[O-])c([N+](=O)[O-])cc2Cl)n1`: the EC50 is 64.6 µM and the IC50 was above 100 µM.

As for `Cc1ccc(C2=Nc3ccccc3SC(c3cccc([N+](=O)[O-])c3)C2)cc1` (configuration not stated), the EC50 is above 33.9 µM and the IC50 is 6.17 µM.

`C=C(COC(=O)C(C)C)[C@H]1Oc2ccc(C(C)=O)cc2[C@@H]1OC(=O)C(C)C`: the EC50 is above 200 µM and the IC50 was above 200 µM.

For the compound `CCOC(=O)/C(F)=C/c1ccc(OC)cc1`, the EC50 was above 115 µM and the IC50 is above 115 µM.

For the compound `Cn1c2ccccc2c2nnc(N/N=C/c3ccc([N+](=O)[O-])o3)nc21`, the EC50 is above 200 µM and the IC50 was above 200 µM.

`COc1ccc(C2SCC(=O)N2c2ccc(-c3ccc(-n4c(-c5ccccc5)nc5ccccc5c4=O)cc3)cc2)cc1OC` (configuration not stated): the EC50 is above 200 µM and the IC50 is 18.2 µM.

`O=C1CC(c2ccccc2)S(=O)c2ccccc2N1` (configuration not stated): the EC50 was above 200 µM and the IC50 is above 200 µM.

As for `CC1(C)C(=C(C#N)C#N)C(C)(C)C1=C(C#N)C#N`, the EC50 is above 100 µM and the IC50 was above 100 µM.

Regarding `O=C1NC2C3CC(c4ccccc43)C12` (configuration not stated), the EC50 is above 832 µM and the IC50 was above 832 µM.

Consider `O=[N+]([O-])c1ccc(C2=Nc3ccccc3SC(c3ccccc3)C2)cc1` (configuration not stated), for which the EC50 is above 27.5 µM and the IC50 is above 27.5 µM.

Regarding `COc1ccc(/C=C/C(=O)c2sc(-n3nc(-c4ccccc4)cc3-c3ccccc3)nc2C)cc1OC`, the EC50 is above 70.8 µM and the IC50 is 38 µM.

Turning to `CN(C)/C=C/c1c2c(nc3ccccc13)C(=O)c1ccccc1C2=O`, the EC50 is above 100 µM and the IC50 turned out to be 2.24 µM.

`Cc1ccc(CC(Cc2ccc(C)cc2C(=O)O)C(=O)O)cc1` (configuration not stated): the EC50 was above 200 µM and the IC50 is above 200 µM.

Take `NC(N)=N/N=C/c1c(Cl)nc2sccn12`: the EC50 was above 200 µM and the IC50 was 38 µM.

With `c1ccc2c(c1)cc1n2CC2CN=NC12` (configuration not stated), the EC50 is above 182 µM and the IC50 is above 182 µM.

For `Cn1c(-c2ccccc2)cc2c3ccsc3c3ccsc3c21`, the EC50 was above 200 µM and the IC50 came out at 45.7 µM.

Take `COC(=O)C(NC(=O)CNC(=O)CSc1nnc(COc2ccc(Cl)cc2)n1-c1ccccc1)C(C)C` (configuration not stated): the EC50 was above 200 µM and the IC50 is 3.63 µM.

Take `Clc1ccc(C=Nc2ccc(SSc3ccc(N=Cc4ccc(Cl)cc4)cc3)cc2)cc1`: the EC50 is above 200 µM and the IC50 was 22.4 µM.

`c1ccc(-c2nnc(-c3ccccc3)c3nonc23)cc1`: the EC50 is above 95.5 µM and the IC50 is above 95.5 µM.

On to `CCC(=O)CCCC=C(c1cc(Cl)c(OC)c(C(=O)OC)c1)c1cc(Cl)c(OC)c(C(=O)OC)c1`, for which the EC50 is 1.45 µM and the IC50 came to 40.7 µM.

Consider `O=[N+]([O-])c1ccc(/C=C/c2c[n+]([O-])nc3ccccc23)cc1`, for which the EC50 is above 200 µM and the IC50 was above 200 µM.

Consider `COc1ccc(-c2c(-c3ccc(OC)cc3)n3c(=O)n(C)c(=O)n23)cc1`, for which the EC50 is above 200 µM and the IC50 came out at 79.4 µM.

In the case of `c1ccc(CNCCCCNCCCNCc2ccccc2)cc1`, the EC50 is above 200 µM and the IC50 is 13.8 µM.

`CC1C=CC(C(=O)O)C2C(=O)OC(=O)C12` (configuration not stated): the EC50 is above 1200 µM and the IC50 was above 1200 µM.

`N#C[C@@]12CCCC(=O)[C@@H]1[C@H]1CCC[C@H]12`: the EC50 was above 200 µM and the IC50 was 77.6 µM.

Turning to `COc1ccc2c3c1C(=O)CCCC3CO2` (configuration not stated), the outcome was inactive.

In the case of `CN(C)c1ccc(/C=C(\NC(=O)c2ccccc2)C(=O)Nc2ccccc2C(=O)N/N=C/c2ccc(N(C)C)cc2)cc1`, the EC50 was above 25.1 µM and the IC50 is above 25.1 µM.

In the case of `O=S(=O)(O)c1cc2ccc1/C=C\c1ccc(cc1S(=O)(=O)O)N=Nc1ccc(c(S(=O)(=O)O)c1)/C=C\c1ccc(cc1S(=O)(=O)O)N=N2`, the result was active.

On to `COc1cccc(/C=N/[N-]C(N)=O)c1[O-].[Ni+2].[OH3+]`, for which the EC50 was above 166 µM and the IC50 was 0.0525 µM.

Regarding `C#CC(C)(C)Oc1cc(O)c2c(=O)c3ccccc3n(C)c2c1`, the EC50 was above 23.4 µM and the IC50 is above 23.4 µM.

`CCCCCCCCCCCCC(N=[N+]=[N-])C(=O)OCC1OC(n2cc(C)c(=O)[nH]c2=O)CC1O` (configuration not stated): the EC50 was above 20.4 µM and the IC50 was above 20.4 µM.

As to `Cn1/c(=N\N=C2\C=C3CCCCC3(C)CC2)sc2ccccc21` (configuration not stated), the EC50 is above 200 µM and the IC50 worked out at 155 µM.

Regarding `CN(C)CCCn1c(-c2cc(C(C)(C)C)c(O)c(C(C)(C)C)c2)csc1=Nc1ccccc1`, the EC50 was above 200 µM and the IC50 was 3.55 µM.

In the case of `Cn1c(N)c(/C=C/C(=O)Oc2ccccc2)c(=O)n(C)c1=O`, the outcome was inactive.

Consider `Nc1ncnc2oc(-c3ccccc3)nc12`, for which the EC50 was above 195 µM and the IC50 was above 195 µM.

On to `CCN(CC)CCN1C(=O)c2cccc3cccc(c23)C1=O`, for which the EC50 is above 200 µM and the IC50 was found to be 9.77 µM.
